Laboratory results published in PubChem BioAssay (NCI).
Several values for one entry are separate records, joined by “and”; a condition that tells them apart may be missing. Identical values can stand only once.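 Where inhibition never reached the appropriate level, the endpoint shown equals the highest concentration tested. Otherwise, values were interpolated linearly from a five-concentration, 48-hour dose response in 96-well plates. GI50 is the concentration that inhibits growth by half. At the TGI there is no net growth.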

Experiments:
Assay in all cases: NCI tumour cell line growth inhibition, 48 h
[1] = test system: CCRF-CEM leukemia
[2] = test system: SK-MEL-28 melanoma
[3] = test system: SNB-75 CNS
[4] = test system: UACC-62 melanoma
[5] = test system: SF-295 CNS
[6] = test system: HCT-116 colon
[7] = test system: HT29 colon
[8] = test system: SF-539 CNS

SMILES | TGI [1] | TGI [2] | TGI [3] | TGI [4] | TGI [5] | TGI [6] | TGI [7] | TGI [8] | GI50 [8] | GI50 [1] [µM] | GI50 [2] [µM] | GI50 [3] [µM] | GI50 [4] [µM] | GI50 [5] [µM] | GI50 [6] [µM] | GI50 [7] [µM]
Cc1ccc(/C=C/C(=O)c2ccc(Cl)c(Cl)c2)cc1 | > 100 µM | > 100 µM | > 100 µM | > 100 µM | > 100 µM | > 100 µM | > 100 µM |  |  |  |  |  |  |  |  | 
Cc1cccc(-c2nnc3s/c(=C\c4ccc(N(C)C)cc4)c(=O)n23)c1 | > 100 µM | > 100 µM | > 100 µM | > 100 µM | > 100 µM | > 100 µM |  | > 100 µM |  |  |  |  |  |  |  | 
CC(C)(C)C(=O)N1C(C(=O)O)Cc2ccccc2[C@@H]1Cc1ccccc1 (stereo partly specified) | > 100 µM | > 100 µM | > 100 µM | > 100 µM | > 100 µM | > 100 µM | > 100 µM | > 100 µM |  |  |  |  |  |  |  | 
CCCCCCCCCCCCSC(=S)c1c(C)[nH]n(-c2ccccc2)c1=O | 23.2 µM | > 50 µM |  | 25.9 µM | 35.6 µM |  | 36.6 µM | 33.9 µM |  |  |  |  |  |  |  | 
Nc1nc(=O)n(C2CCC(CO)O2)cc1F (stereo unspecified) | > 100 µM | > 100 µM | > 100 µM |  | > 100 µM |  | > 100 µM |  |  |  |  |  |  |  |  | 
O=C(C[n+]1ccccc1)N/N=C(/CCC(=O)N(Cc1ccccc1)Cc1ccccc1)CC(=O)c1ccccc1 | > 100 µM | > 100 µM | > 100 µM | > 100 µM | > 100 µM | > 100 µM | > 100 µM | > 100 µM |  |  |  |  |  |  |  | 
CSC(=O)C[C@@]12O[C@@H]([C@@H](C)C3CCC4[C@@H]5C(O)CC6=CC(=O)C=C[C@]6(C)C5CC[C@@]43C)C[C@](C)(O1)C(C)(C)O2 (stereo partly specified) | 19.1 µM | 32.1 µM |  | 27 µM | 28.6 µM | 26.4 µM | 27.6 µM | 30.7 µM |  |  |  |  |  |  |  | 
COc1ccc(C(=O)C2CCC(C(=O)O)C2)cc1 (stereo unspecified) | > 100 µM | > 100 µM | > 100 µM | > 100 µM | > 100 µM | > 100 µM | > 100 µM | > 100 µM |  |  |  |  |  |  |  | 
CCOC(=O)C12CCCC1(O)N(NC(=O)OC)C(C)=C2C(=O)OC (stereo unspecified) | > 100 µM | > 100 µM |  | > 100 µM | > 10 µM | > 100 µM | > 100 µM | > 100 µM |  |  |  |  |  |  |  | 
COC(=O)CCC(=O)Nc1ccc(Cl)cc1C | > 100 µM | > 100 µM | > 100 µM | > 100 µM | > 100 µM | > 100 µM | > 100 µM | > 100 µM |  |  |  |  |  |  |  | 
CN(C)c1ccc(/C=c2\sc3nnc(-c4ccco4)n3c2=O)cc1 | > 100 µM | > 100 µM | > 100 µM | > 100 µM | > 100 µM | > 100 µM |  | > 100 µM |  |  |  |  |  |  |  | 
COc1ccc(/C=C/c2cc(OC)c(OC(C)=O)c(OC)c2)cc1 | > 100 µM | 25.3 µM | 60.5 µM | 42.8 µM |  | > 100 µM | > 100 µM |  |  |  |  |  |  |  |  | 
c1ccc(SC(Sc2ccccc2)=C2CCC2)cc1 | > 100 µM | > 100 µM | > 100 µM | > 100 µM | > 100 µM | > 100 µM |  | > 100 µM |  |  |  |  |  |  |  | 
O=C1c2ccccc2-c2c3c(cc4ccnc1c24)OCO3 | 39 µM and 20.7 µM | 30.7 µM and > 100 µM | 26.3 µM and 21.1 µM | 69.2 µM and 8.07 µM | 33.6 µM and 48.4 µM | 33.3 µM and 33.6 µM | > 100 µM and 78 µM | 53.5 µM and 37.8 µM | 7.97 µM and 3.53 µM |  |  |  |  |  |  | 
CC(Oc1ccc2c(-c3ccc(Cl)cc3)cc(=O)oc2c1)C(=O)O (stereo unspecified) | > 100 µM | > 100 µM | > 100 µM | > 100 µM | > 100 µM | > 100 µM | > 100 µM | > 100 µM |  |  |  |  |  |  |  | 
CSC(=NC(=O)c1ccccc1Cl)SCCSC(=NC(=O)c1ccccc1Cl)SC | > 100 µM | > 100 µM | > 100 µM | > 100 µM | > 100 µM | > 100 µM | > 100 µM | > 100 µM |  |  |  |  |  |  |  | 
CCN(CC)CCN(CC)CC.CCN(CC)CCN(CC)CC.[Cu+2].[Cu+2].[O-][Cl+3]([O-])([O-])[O-].[OH3+].[OH3+] | > 100 µM | 45.5 µM | 39.4 µM | 36.4 µM | 98.9 µM | > 100 µM | 87.9 µM | > 100 µM | > 100 µM | 37.6 | 22.1 | 23.6 | 18.3 | 34.4 | 40.2 | 25.6
Cc1ccc(NCC2(/N=C/c3ccccc3)OC(CO)C(O)C2O)cc1 (stereo unspecified) | 99.2 µM | > 100 µM | > 100 µM | > 100 µM | > 100 µM | > 100 µM | > 100 µM | > 100 µM |  |  |  |  |  |  |  | 
CCC[CH2][Sn](=[O])[CH2]CCC | > 50 µM | > 50 µM | > 50 µM | > 50 µM | > 50 µM | > 50 µM | > 50 µM | > 50 µM | > 50 µM | > 50 | > 50 | > 39.7 | > 50 | > 50 | > 50 | > 50
